In patent publication US20240217978A1 (CHONG KUN DANG PHARMACEUTICAL CORP., priority 2021, published 2024):

Molecular target: human adenosine A2a receptor (Homo sapiens (Human), UniProt P29274)
Assay: A2a receptor binding affinity, [3H]-NECA radioligand binding test
Details: [3H]-NECA 37 nM; membrane from HEK-293 cells transfected with human adenosine A2a receptor
How it was run: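 Membranes from HEK-293 cells expressing human A2a receptor were incubated with [3H]-NECA (final 37 nM) and compound for 1 h at room temperature in 50 mM Tris, 10 mM MgCl2, 1 mM EDTA, pH 7.4. Bound ligand was filtered on PEI-coated plates and counted by scintillation to derive IC50 (μM).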

Chain of human adenosine A2a receptor (P29274 whole entry): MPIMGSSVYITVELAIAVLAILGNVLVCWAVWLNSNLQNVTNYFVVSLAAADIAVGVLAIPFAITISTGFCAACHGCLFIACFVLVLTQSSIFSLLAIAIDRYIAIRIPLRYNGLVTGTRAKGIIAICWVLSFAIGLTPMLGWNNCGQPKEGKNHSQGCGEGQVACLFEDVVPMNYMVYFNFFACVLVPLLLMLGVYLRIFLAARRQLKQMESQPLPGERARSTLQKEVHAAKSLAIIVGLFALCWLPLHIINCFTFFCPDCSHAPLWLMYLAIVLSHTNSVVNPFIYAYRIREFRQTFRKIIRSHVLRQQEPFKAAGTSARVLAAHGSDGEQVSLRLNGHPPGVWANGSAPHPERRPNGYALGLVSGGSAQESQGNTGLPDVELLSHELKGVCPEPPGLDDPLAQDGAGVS

First: CCCCN1CCN(C(=O)[C@H](COC)Nc2nc(N)n3nc(-c4ccco4)nc3n2)CC1 [Example 401, (S)-2-((7-amino-2-(furan-2-yl)-[1,2,4]triazolo[1,5-a][1,3,5]triazin-5-yl)amino)-1-(4-butylpiperazin-1-yl)-3-methoxypropan-1-one]
Second: COCCN1CCN(C2CN(C(=O)[C@@H]3CCCN3c3nc(N)n4nc(-c5ccco5)nc4n3)C2)CC1 [Example 405, (S)-(1-(7-amino-2-(furan-2-yl)-[1,2,4]triazolo[1,5-a][1,3,5]triazin-5-yl)pyrrolidin-2-yl)(3-(4-(2-methoxyethyl)piperazin-1-yl)azetidin-1-yl)methanone]
The IC50 of the first is 6.5-fold lower: 11 nM for the first, 71 nM for the second. The first is the more potent here.

Compared with Nc1nc(N2CC[C@H]2C(=O)N2CCC(CN3CCC(C(F)(F)F)CC3)CC2)nc2nc(-c3ccco3)nn12 [Example 402, (S)-(1-(7-amino-2-(furan-2-yl)-[1,2,4]triazolo[1,5-a][1,3,5]triazin-5-yl)azetidin-2-yl)(4-((4-(trifluoromethyl)piperidin-1-yl)methyl)piperidin-1-yl)methanone], Nc1nc(N2CCC[C@H]2C(=O)N2CCC(CN3CC(F)C3)CC2)nc2nc(-c3ccco3)nn12 [Example 406, (S)-(1-(7-amino-2-(furan-2-yl)-[1,2,4]triazolo[1,5-a][1,3,5]triazin-5-yl)pyrrolidin-2-yl)(4-((3-fluoroazetidin-1-yl)methyl)piperidin-1-yl)methanone] is 1.7-fold higher in IC50: 10 nM for the first, 17 nM for the second.

Going from Nc1nc(N2CCC[C@H]2C(=O)N2CCN(C3COC3)CC2)nc2nc(-c3ccco3)nn12 [Example 403, (S)-(1-(7-amino-2-(furan-2-yl)-[1,2,4]triazolo[1,5-a][1,3,5]triazin-5-yl)pyrrolidin-2-yl)(4-(oxetan-3-yl)piperazin-1-yl)methanone] to Nc1nc(N2CCC[C@H]2C(=O)N2CCN(C3COC3)CC2)cc2nc(-c3ccco3)nn12 [Example 404], the IC50 rises from 9 nM to 18 nM (2-fold).
